# Conditions: rat; liver microsomes; pH 7.4; 15.0 min; 1.0 µM
row,Structure (SMILES),half-life [min]
1,CN1Cc2c(cc(N3CCOCC3)nc2-c2ccccc2OC(F)(F)F)C1=O,> 30
2,CC(C)Oc1ccc(C(=O)Nc2ccc3c(c2)CCCN3C(=O)c2cccs2)cc1,4.8
3,COc1ccc(C)cc1-n1nnnc1Sc1ncnc2scc(-c3ccc(Br)cc3)c12,2.1
4,C#C[C@]1(OC(C)=O)CC[C@H]2[C@@H]3CCC4=C/C(=N/O)CC[C@@H]4[C@H]3CC[C@@]21CC,3.98
5,CCC(CC)c1cc([C@H]2CN3CC[C@H]2C[C@@H]3CNC(C)=O)nc(-c2ccncc2)n1,10.9
6,Cc1cc(C)nc(NC(=S)N2CCN(c3cc(C(F)(F)F)nc4ccc(C(F)(F)F)cc34)CC2)c1,> 30
7,O=C(O)c1cn(C2CC2)c2cc(N3C[C@@H]4C[C@H]3CN4)c(F)cc2c1=O,> 30
8,COc1ccnc(NC(=S)N2CCN(c3cc(C(F)(F)F)cc(C(F)(F)F)c3)CC2)c1,> 30
9,O=C1c2ccccc2C2=Nc3ccccc3SC(c3ccccc3F)C12 (stereo not drawn),3.11
10,O=C(O)c1ccnc2cc(C(OCCN3CCCCC3)c3ccccc3Cl)[nH]c12 (stereo not drawn),> 30
11,Cn1nnnc1Sc1ncnc2scc(Br)c12,19.6
12,O=C(c1ccc(C(=O)N2CCC(N3CCCC3)CC2)c(Nc2ccccc2)c1)N1CCC(N2CCCC2)CC1,> 30
13,COc1cccc(CNCCSc2nnnn2C)c1OCc1ccc(Cl)cc1Cl,1.35
14,CCN1CCN(c2ccc3cc(S(=O)(=O)N4CCOCC4)ccc3n2)CC1,16
15,Cc1c(NC2=C(Cl)C(=O)N(c3ccccc3)C2=O)c(=O)n(-c2ccccc2)n1C,23
16,CN(C)C(=O)C1CCN(c2nc(-c3ccc(Br)cc3)cs2)CC1,> 30
17,CCOc1cc(=O)n2c(c1C(=O)Nc1cc(OC)c(Cl)cc1OC)CCCC2,> 30
18,COC(=O)c1sccc1NC(=O)c1sccc1C,1.46
19,O=C(Nc1ccccc1-c1cn2c(CN3CCNCC3)csc2n1)c1cnc2ccccc2n1,> 30
20,COCC(C)Nc1ncnc2c1cnn2-c1ccc(C)c(C)c1 (stereo not drawn),23.7
21,CCC[C@@H]1CN(C(=O)c2ccc(-c3ccc(C)o3)cc2)C[C@H]1NC(C)=O,13.2
22,CN1CCCC(CC2c3ccccc3Sc3ccccc32)C1 (stereo not drawn),1.4
23,O=C(Nc1ccc([S+](=O)([O-])Nc2nccs2)cc1)c1ncn[nH]1,> 30
24,Cc1nc(Sc2nnnn2C)c2c(-c3ccccc3)csc2n1,1.6
25,CCCCOC(=O)c1ccnc2cc(C(OCCN3CCCCC3)c3ccccc3Cl)sc12 (stereo not drawn),3.32

row,Structure (SMILES),half-life [min]
1,CCOC(=O)C1CCN(C(=O)C2(NC(=O)Nc3ccccc3Cl)CCC2)CC1,1.7
2,COCCn1ccc2c(C3=CCOCC3)nc(-c3ccc4c(c3)CNC4=O)cc21,9.18
3,COc1cc(O)c([C@H](CC(=O)N2CC(C)CC(C)C2)c2ccc3c(c2)OCO3)c(OC)c1 (stereo partly drawn),3.3
4,O=C1CCCC2=C1C(c1ccncc1Br)N=C(Nc1nc3ccccc3o1)N2 (stereo not drawn),6.5
5,O=c1[nH]c(C2CCN(S(=O)(=O)c3ccc4c(c3)OCCO4)CC2)nc2c1nnn2Cc1c(F)cccc1Cl,1.4
6,COCCNC(=O)c1ccc(Cn2c(=S)[nH]c3cc4c(cc3c2=O)OCO4)cc1,> 30
7,O=[S+]([O-])(Nc1ccccc1)c1ccc(NCc2cccc(C(F)(F)F)c2Cl)cc1,13
8,C=Cc1ccc(Cn2c(C(=O)O)c(CNC3CCCCC3)c3ccc(OC)cc32)cc1,7.15
9,O=S(=O)(Nc1nccs1)c1ccc(NCc2cc(Cl)ccc2O)cc1,11
10,CC(C)OC(=O)c1ccnc2cc(C(OCCN3CCCCC3)c3ccccc3Cl)sc12 (stereo not drawn),4.49
11,COc1ccc(NC(=O)CCCc2nnc3n(CCC(C)C)c(=O)c4sccc4n23)cc1Cl,2.96
12,c1ccc(-c2csc3ncnc(Sc4nnn(-c5ccccc5)n4)c23)cc1,1.5
13,CCc1ccc2oc(=O)cc(CN3CCN(c4ccccc4F)CC3)c2c1,3
14,CN(C)C(=O)NC1CCC(CCN2CCN(c3cccc(Cl)c3Cl)CC2)CC1 (stereo not drawn),> 30
15,CCc1ccc(OC(C)C(=O)N2CCC(c3nc4ccccc4o3)CC2)cc1 (stereo not drawn),1.32
16,COc1cccc(-c2csc(N3CCC(C(N)=O)CC3)n2)c1,1.33
17,Nc1nc(Nc2ccc(S(N)(=O)=O)cc2)nn1C(=O)c1c(F)cccc1F,> 30
18,O=C(NC1CCCc2c1[nH]c1c(Cl)cccc21)c1ccc2c(c1)OCO2 (stereo not drawn),12.8
19,O=C(Nc1nc(-c2ccccn2)cs1)c1cccc(S(=O)(=O)N2CCOCC2)c1,8.47
20,CC(C)(C)c1ccc(C(=O)Nc2cn3cc(-n4ccnc4)ccc3n2)cc1,> 30
21,COC12C(COC(N)=O)C3=C(C(=O)C(C)=C(N)C3=O)N1CC1C2N1C (stereo not drawn),> 30
22,Cc1noc(C)c1-c1ccc(-c2cc(C(N)=O)c(NC(N)=O)s2)c(O[C@H]2CCNC2)c1,> 30
23,O=C(CCCc1ccc2cccnc2n1)NCc1cc(-c2ccc(F)c(C(F)(F)F)c2)no1,9.4
24,CCCS(=O)(=O)c1nc(NC2CC2)cc(-c2ccc3c(ccn3C3CC(C)(C)NC(C)(C)C3)c2)n1,> 30
25,CN(C)CCCN1c2ccc(O)cc2Sc2ccc(Cl)cc21,10.7

# Further lines, results first:
row,half-life [min],Structure (SMILES)
1,3.54,CSc1ccc(/C=C/c2nc3ccccc3n2S(=O)(=O)c2cccc(Cl)c2)cc1
2,9.7,Cc1ccccc1C(=O)N1CCc2cc(-c3cccc(NC(=O)Cc4ccc5c(c4)OCO5)c3)ccc21
3,> 30,COc1cnccc1-c1nc(Nc2ccc(F)c(F)c2)c2ccccc2n1
4,24,Fc1ccc(Nc2nc(-c3ccncc3)cc3ccccc23)cc1F
5,> 30,Cc1ccc(-c2cc(C(=O)Nc3ccc(-c4noc(=O)[nH]4)cc3)c3ccccc3n2)cc1C
6,7.2,CN1C(=O)c2ccccc2[S@](=O)c2ccc(C(=O)NCCc3cccs3)cc21
7,> 30,O=C(Nc1ncc(Cc2ccc(C(F)(F)F)cc2)s1)c1cn(-c2ccccc2)cn1
8,8.13,CC(=O)Nc1ccc(NC(=O)C(NS(=O)(=O)c2ccc(Br)s2)c2ccccc2)cc1 (stereo not drawn)
9,2.47,COc1ccc(-c2cc(-c3ccccc3)nc(SCC(=O)Nc3ccccc3C)c2C#N)cc1
10,17.8,O=C(Cc1cccs1)NCc1nnc2ccc(-c3ccccc3)nn12
11,> 30,O=C(Nc1nc2cc(C(F)(F)F)ccc2s1)c1ccc(-c2cccc([N+](=O)[O-])c2)o1
12,29.2,O=C1C(c2ccc(C(F)(F)F)cc2)=C(Nc2ccc(Cl)cc2)c2ccccc21
13,> 30,Cc1cc(C)c2nc(-c3ccccn3)cc(C(=O)Nc3ccc(S(=O)(=O)Nc4onc(C)c4C)cc3)c2c1
14,> 30,O=C(Nc1ccc2oc(-c3ccccc3F)nc2c1)c1ccc([N+](=O)[O-])o1
15,> 30,COc1ccc(NC(=O)c2[nH]c(C)c(C(C)=O)c2C)cc1
16,> 30,CCc1ccc(NC(=O)c2[nH]c(C)c(C(C)=O)c2C)cc1[S+](=O)([O-])Nc1ccccc1C#N
17,7.1,Fc1cnc(-c2ccccc2C(F)F)nc1NCc1ccc(-c2cccnc2)cc1
18,4.5,O=C1Nc2ccccc2/C1=C/c1ccnc2ccccc12
19,6.21,CC(C)c1ccccc1-c1nc2c(c(NCc3ccc(-c4cccnc4)cc3)n1)CNC2
20,10.9,CCn1cc(CNC(=O)c2cc(-c3ccc(C)cc3)nc3ccc(Br)cc23)c(C)n1
21,> 30,Fc1ccccc1-c1ccc(Nc2nc(-c3ccncc3)nc3ccccc23)cc1F
22,> 30,CC(=O)Nc1cccc(Nc2nc3ccccc3n3c(C)nnc23)c1
23,6.5,COc1ccc(C(=O)Nc2nc(-c3ccccc3)cs2)c(NS(=O)(=O)c2ccc(C)cc2)c1
